Consider one compound from publication PMC12292521, “Discovery of a Potent Antimicrobial Peptide Through Rational Design: A New Frontier in Pathogen Control” (Biomolecules, 2025).

Data set [1] concerns Monophasic Salmonella Typhimurium. The class given is cell-based, monophasic variant of Salmonella Typhimurium. The settings on record: Monophasic murium, 6 h. On the procedure:
(§1) To assess the antimicrobial potential of the designed peptide, different strains of Gram-negative and Gram-positive bacteria were evaluated. Pseudomonas aeruginosa was an ATCC (27853) strain, while Escherichia coli, Listeria monocytogenes, Staphylococcus aureus, Campylobacter jejuni, Salmonella Typhimurium, the monophasic variant of Salmonella Typhimurium and Salmonella Napoli were isolated from food products by the Laboratory of Microbiological Food Control—Department of Food Microbiology of the Istituto Zooprofilattico Sperimentale del Mezzogiorno (IZSM) in Portici (Naples, Italy).
(§2) In accordance with the Clinical & Laboratory Standards Institute guidelines (CLSI, 2015), the Minimum Bactericidal Concentration (MBC), defined as the minimum concentration of peptide required to kill 99.9% of the tested bacterial suspension within a defined time interval, was determined. L. monocytogenes, E. coli, S. aureus, S. Typhimurium, monophasic variant of S. Typhimurium, S. Napoli, and P. aeruginosa were cultured at 37 °C in buffered peptone water (Thermo Fisher, Milan, Italy), while C. jejuni was cultured in Bolton Broth (Oxoid, Madrid, Spain). The bacterial suspension was collected and then diluted in fresh broth to a final concentration of 1.0 × 10^3 or 1.0 × 10^5 colony-forming units (CFUs)/mL. […] Samples containing only cell suspension and DMSO were used as controls. […]

The next data set relates to Campylobacter jejuni. The class given is cell-based. To be noted: 6 h. As for the experimental part: as §1, §2
A further data set deals with Salmonella Napoli. The class given is cell-based. The settings on record: 6 h. As for the experimental part: as §1, §2
A further data set concerns S. aureus (MRSA) biofilm. Nature of the data set: Antibiofilm activity (crystal violet). It is filed as cell-based, Staphylococcus aureus. To be noted: RKW at ½ and ¼ MIC (25 and 12.5 μM); OD 630 nm vs control; three independent experiments; ANOVA p < 0.01; greatest inhibition at ¼ MIC. As for the experimental part: (§3) Therefore, the minimum inhibitory concentration (MIC) and MBC were evaluated. […] Subsequently, the antibiofilm activity of the peptide was tested according to Festa et al.. Specifically, two different concentrations of peptide were used, corresponding to ½ and ¼ of the estimated MIC value, which guarantee the optimal bacterial growth conditions necessary to allow biofilm production. Biofilm production (%) was calculated based on Optical Density (measured at 630 nm) outputs, compared to the control group.
(§4) To compare the percentages of biofilm production across different samples, a one-way analysis of variance (ANOVA) was conducted using Prism v. 10.0 (GraphPad, Graph-Pad Software, La Jolla, CA, USA). Significant differences between sample pairs were identified with Tukey’s post hoc test (p < 0.05).

The test system of the next data set is P. aeruginosa biofilm. Nature of the data set: Antibiofilm activity (crystal violet). The class given is cell-based, Pseudomonas aeruginosa. To be noted: RKW at ½ and ¼ MIC (10 and 5 μM); OD 630 nm vs control; three independent experiments; ANOVA p < 0.05; greatest inhibition at ¼ MIC. As for the experimental part:
as §3, §4

The conditions of data set [2]: 100 µM peptide, 37 °C, 24 h, RP-HPLC C18, absorbance 280 nm, peak area vs time 0, three independent studies. On the procedure: A total of 3.7 mg of peptide was dissolved in 1 mL of Milli-Q H2O to obtain a 2 mM stock solution. A 5% solution of Newborn Calf Serum (NCS) was prepared in Dulbecco’s phosphate-buffered saline (DPBS) (v/v) and then subjected to heat-inactivation by incubating the solution at 57 °C for 45 min (Hi-NCS). Therefore, 100 µM of peptide was incubated in 5% Hi-NCS at 37 °C for 24 h in DPBS. […] Therefore, the samples were centrifuged at 13,000 rpm for 5 min, and the supernatants were diluted in an equal volume of water. Finally, 200 µL of the collected solutions were loaded onto a μBondapak reversed-phase C18 column (Waters, 3.9 mm × 300 mm) connected to an HPLC system (Shimadzu, Milan, Italy), using a linear gradient of acetonitrile (5–95%) in water containing 0.1% TFA at a flow rate of 1 mL/min, and absorbance was detected at 280 nm. […] Samples containing only Hi-NCS were also analyzed. The same experiments were performed in the presence of NCS, not subjected to the heat inactivation treatment. Results are the average of three independent studies.

In brackets after ≈: the same amount, converted by molar mass. Peptide text beside a SMILES is read from it.

Consider `CC[C@H](C)[C@H](NC(=O)[C@H](Cc1c[nH]c2ccccc12)NC(=O)[C@H](CCCCN)NC(=O)[C@@H](N)CCCNC(=N)N)C(=O)N[C@@H](CC(C)C)C(=O)N[C@@H](CCCCN)C(=O)N[C@@H](Cc1c[nH]c2ccccc12)C(=O)N[C@@H](CC(C)C)C(=O)N[C@@H](CCCNC(=N)N)C(=O)N[C@H](C(=O)N[C@@H](Cc1c[nH]c2ccccc12)C(=O)N[C@@H](CCCCN)C(=O)N[C@@H](CCCCN)C(N)=O)[C@@H](C)O` [RKW] (H-RKWILKWLRTWKK-NH2; N-terminus assumed), for which the MBC in data set [1] stood at 20 µM (≈ 36.8 µg/mL); in the data set on Campylobacter jejuni it was 80 µM (≈ 147 µg/mL); in the data set with Salmonella Napoli, 20 µM (≈ 36.8 µg/mL). Besides, the Biofilm production result in the data set on S. aureus (MRSA) biofilm and in the data set on P. aeruginosa biofilm was “significantly inhibited the biofilm production” in each case. The “Stability of RKW in heat-inactivated serum (Hi-NCS)” value in data set [2] (5% Hi-NCS (57 °C, 45 min) in DPBS) is “no peptide breakage”. Also, the “Stability of RKW in serum, not heat-inactivated (NCS)” value in data set [2] (5% NCS in DPBS) was “complete degradation pattern”.

Broadly, the MBC is the smallest concentration meeting the test's criterion for killing. Read a low MBC as more potent killing.
